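Five concentrations, 48 hours, 96-well plates. TGI marks complete inhibition of growth.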 A value given as a limit tells only on which side of the number the result lay.

In PubChem BioAssay (NCI) one finds TGI data, which are given here for 7 compounds.

Some test systems named below: HL-60(TB) leukemia; SF-539 CNS; UO-31 renal; BT-549 breast; UACC-62 melanoma; HT29 colon; MDA-MB-231 breast; NCI-H522 lung; HOP-62 NSCLC; DU-145 prostate; MDA-N; LOX IMVI melanoma; 786-0 renal; SNB-75 CNS; COLO 205 colon; MOLT-4 leukemia; SN12C renal; SK-MEL-2 melanoma; PC-3 prostate; K-562 leukemia.
Assay in all cases: NCI anticancer screen, dose series, 48 h

With `CCN(CC)/[N+]([O-])=N/OCOC(C)=O`, the TGI in the assay with HL-60(TB) leukemia, with SF-539 CNS, with UO-31 renal, in the assay on BT-549 breast, with UACC-62 melanoma and with HT29 colon was greater than 100 µM each time. Also, the TGI with MDA-MB-231 breast, in the assay with NCI-H522 lung, in the assay on HOP-62 NSCLC, in the assay with DU-145 prostate, with MDA-N and in the assay with LOX IMVI melanoma was greater than 100 µM each time. Also, the TGI with 786-0 renal, with SNB-75 CNS, in the assay with COLO 205 colon, with MOLT-4 leukemia, in the assay on SN12C renal and in the assay on SK-MEL-2 melanoma was greater than 100 µM throughout. Besides, the TGI in the assay on PC-3 prostate and with K-562 leukemia was greater than 100 µM each time.

In the case of `COc1ccc2c(c1)CCCN2S(=O)(=O)c1ccccc1[N+](=O)[O-]`, the TGI is 37.1 µM in the assay with HL-60(TB) leukemia; 68.8 µM with SF-539 CNS; greater than 94.5 µM with UO-31 renal; 66.7 µM in the assay with BT-549 breast; greater than 97.5 µM with UACC-62 melanoma; 77.2 µM with HT29 colon. In addition, the TGI in the assay on MDA-MB-231 breast is greater than 100 µM; in the assay with NCI-H522 lung, 66.5 µM; with HOP-62 NSCLC, greater than 100 µM; in the assay on DU-145 prostate, greater than 100 µM; in the assay on MDA-N, 26.7 µM; in the assay on LOX IMVI melanoma, greater than 88.6 µM. Moreover, the TGI in the assay with 786-0 renal is greater than 100 µM; in the assay on SNB-75 CNS, greater than 87 µM; in the assay on COLO 205 colon it was greater than 79.8 µM; in the assay with MOLT-4 leukemia, 67.3 µM; in the assay with SN12C renal, greater than 100 µM; in the assay on SK-MEL-2 melanoma, 72.4 µM. Further, the figures for the TGI in the assay with PC-3 prostate and with K-562 leukemia were greater than 100 µM and greater than 68.9 µM, respectively.

For the compound `N#Cc1c(Cl)nc2ccccc2c1N=[N+]=[N-]`, the TGI came out at 3.3 µM in the assay with HL-60(TB) leukemia; 4.6 µM in the assay on SF-539 CNS; 9.4 µM in the assay with UO-31 renal; 4.16 µM in the assay on BT-549 breast; 7.14 µM in the assay on UACC-62 melanoma; 3.26 µM in the assay with HT29 colon. For the same compound, the TGI with MDA-MB-231 breast turned out to be 3.62 µM; with NCI-H522 lung it was 4.62 µM; with HOP-62 NSCLC, 32.7 µM; in the assay on DU-145 prostate, 28.1 µM; in the assay on MDA-N it was 26.8 µM; in the assay with LOX IMVI melanoma, 3.47 µM. The TGI in the assay with 786-0 renal worked out at 7.17 µM; in the assay with SNB-75 CNS, 21.9 µM; with COLO 205 colon, 3.56 µM; in the assay with MOLT-4 leukemia, 3.17 µM; in the assay with SN12C renal it was 10.7 µM; in the assay with SK-MEL-2 melanoma it was 5.12 µM. For the same compound, the figures for the TGI in the assay with PC-3 prostate and in the assay on K-562 leukemia were 8.44 µM and 2.45 µM, respectively.

As to `CN1C=Cc2nccc3cc4c(c1c23)OCO4`, the TGI is greater than 100 µM in the assay with HL-60(TB) leukemia; 34.9 µM in the assay on UO-31 renal; 7.36 µM in the assay on BT-549 breast; 5.36 µM in the assay on UACC-62 melanoma; 27.5 µM in the assay with HT29 colon; 29 µM in the assay on MDA-MB-231 breast. For the same compound, the TGI in the assay on NCI-H522 lung is 8.2 µM; in the assay on HOP-62 NSCLC, 32.7 µM; with DU-145 prostate, greater than 25.1 µM; in the assay on MDA-N it was 8.62 µM; with LOX IMVI melanoma, greater than 100 µM; in the assay with 786-0 renal it was 24.8 µM. For the same compound, the TGI in the assay on SNB-75 CNS was 5.3 µM; with COLO 205 colon, greater than 42.8 µM; in the assay with MOLT-4 leukemia it was greater than 93 µM; with SN12C renal, 30.2 µM; in the assay on SK-MEL-2 melanoma, 11.3 µM; in the assay with PC-3 prostate it was 40.9 µM. In the assay with K-562 leukemia, this compound displayed a TGI greater than 100 µM.

In the case of `CCOC(=O)c1c(-c2ccc(Br)cc2)ccn1C`, the TGI with HL-60(TB) leukemia, in the assay with SF-539 CNS, with BT-549 breast, in the assay on UACC-62 melanoma, in the assay with HT29 colon and in the assay on MDA-MB-231 breast was greater than 10 µM each time. The TGI in the assay with NCI-H522 lung, with HOP-62 NSCLC, with DU-145 prostate, in the assay with MDA-N, in the assay with LOX IMVI melanoma and in the assay with 786-0 renal was greater than 10 µM throughout. Also, the TGI in the assay on SNB-75 CNS, in the assay on COLO 205 colon, in the assay on MOLT-4 leukemia, with SN12C renal, in the assay with SK-MEL-2 melanoma and in the assay on PC-3 prostate was greater than 10 µM in each case. Also, in the assay with K-562 leukemia, the TGI was greater than 10 µM.

With `SCc1ccc(CS)s1`, the TGI in the assay with HL-60(TB) leukemia, in the assay on SF-539 CNS, in the assay on UO-31 renal, in the assay with BT-549 breast, in the assay with UACC-62 melanoma and in the assay with HT29 colon was greater than 100 µM each time. The TGI in the assay on MDA-MB-231 breast, with NCI-H522 lung, in the assay on HOP-62 NSCLC, in the assay with DU-145 prostate, with MDA-N and with LOX IMVI melanoma was greater than 100 µM throughout. For the same compound, the TGI in the assay on 786-0 renal, in the assay with SNB-75 CNS, in the assay on COLO 205 colon, in the assay on MOLT-4 leukemia, in the assay on SN12C renal and with PC-3 prostate was greater than 100 µM each time. This compound returned a TGI with K-562 leukemia greater than 100 µM.

Consider `Cc1nc2ccc(NC3OC(CO)C(O)C(O)C3O)cc2c(=O)n1-c1ccccc1` (stereo unspecified), for which the TGI in the assay with HL-60(TB) leukemia, in the assay on UO-31 renal, in the assay with BT-549 breast, with UACC-62 melanoma, with HT29 colon and with MDA-MB-231 breast was greater than 100 µM throughout. For the same compound, the TGI in the assay on NCI-H522 lung, in the assay with HOP-62 NSCLC, in the assay with DU-145 prostate, with MDA-N, in the assay on LOX IMVI melanoma and with 786-0 renal was greater than 100 µM in each case. The TGI with SNB-75 CNS, with COLO 205 colon, in the assay with MOLT-4 leukemia, in the assay on SN12C renal, in the assay with SK-MEL-2 melanoma and in the assay on PC-3 prostate was greater than 100 µM each time. Moreover, the TGI in the assay with K-562 leukemia is greater than 100 µM.
